The text below walks through data of publication PMC8151276, “An Integrated Approach toward NanoBRET Tracers for Analysis of GPCR Ligand Engagement” (Molecules, 2021).

Holding throughout (type): binding
Assay [1] deals with T1, MCHR1 (Homo sapiens, UniProt Q99705).
T1 construct: purchased Promega (in-house HiBiT-GPCR construct library, NanoBRET)
Kind of assay: NanoBRET screen HiBiT-MCHR1 in HEK293. The protocol: (§1) Each tracer candidate was screened across the entire library of HiBiT-GPCR constructs using NanoBRET as the detection modality. As depicted in Figure 4A, the specificity of interactions was evaluated through decrease in BRET due to competitive displacement of a bound tracer by excess parental compound. Each tracer was analyzed for binding to each HiBiT-GPCR fusion in the absence and in the presence of competing parental compound. Briefly, HEK293 cells were transfected with HiBiT-GPCR constructs diluted into promoterless DNA to reduce expression and maximize translocation to the cell surface. Each tracer candidate was then screened at concentrations of 1 μM and 0.1 μM across cells expressing these fusions. Cells were treated for 1.5 h with tracer either alone or in the presence of 20 μM competing parental compound (i.e., control). BRET was measured upon addition of purified LgBiT and subsequent complementation with HiBiT genetically fused to a GPCR. The specificity of interactions was assessed through a decrease in BRET signal due to competitive displacement of the bound tracer. To further gauge the robustness of these interactions, the fold response over the control (i.e., BRETtracer/BRETcontrol) was calculated. We chose a 1.5-fold response, which translates to ≥7-fold signal over noise as the minimal threshold required to score an interaction as positive. […]. Below we highlight the screening results obtained for our exemplary fluorescent tracers based on Clozapine, Amitriptyline and AZD1283.
(§2) HiBiT-GPCR DNA constructs were diluted in 10 mM Tris pH 8 to a final concentration of 0.01 μg/μL, arrayed in 96-well plates and stored at −20 °C. For transfection, HEK293 cells were suspended in Opti-MEM (without phenol red) supplemented with 2% fetal bovine serum (Seradigm) and 100 units/mL penicillin–streptomycin (Gibco) at a final concentration of 220,000 cells/mL and dispensed into white 96-well plates at 90 μL/well. Subsequent transfections and screens were carried using an Agilent Bravo Automated Liquid Handling Platform. First, the 96-well HiBiT DNA arrays were diluted 25-fold in Opti-MEM (without serum or phenol red) to a final concentration of 0.0004 μg/μL and 20 μL of the diluted DNAs were transferred into new 96-well plates. Next, promoterless carrier DNA (1 μg/μL) was diluted 25-fold (0.04 μg/μL) and then dispensed into the diluted arrays at 20 μL/well. Following brief mixing, Viafect transfection reagent (Promega) diluted 16-fold into Opti-MEM was dispensed into the plates at 40 μL/well. After mixing by pipetting, plates were incubated for 10 min on the pipetting station deck. The DNA-transfection reagent complexes were then added to plates containing cells. To facilitate the screen, 10 μL of DNA-transfection reagent complexes were added in duplicates to the top 4 and bottom 4 rows, resulting in two identical 48-well arrays per plate. Plates with transfected cells were incubated for 18–20 h at 37 °C/5% CO2. A screen of each tracer across the entire library using two different concentrations requires duplicate plates of transfected cells. Depending on the number of tracers being screened, transfections can be scaled up using the same ratios. The next day, for each tracer, four 20× screening solutions in tracer dilution buffer (Promega) were prepared: two duplicates at final concentration of 20 μM and two duplicates at a final concentration of 2 μM. A competing unmodified compound was added to one of each duplicate at a final concentration of 400 μM. The four resulting solutions were diluted 4-fold in Opti-MEM without serum or phenol red to generate 5× solutions (5 µM and 0.5 µM tracer +/− 100 μM competing compound). To screen the library, a BioTek MultiFlo FX liquid dispenser was used to dispense 22.5 µL of tracer solution to the top 4 rows and 22.5 µL tracer + competing compound solution to the 4 bottom rows. Plates were briefly mixed on an orbital shaker and incubated for 1.5 h at room temperature. […]

The target of assay [2] is T2, HCRTR2 (Homo sapiens, UniProt O43614).
T2 construct: purchased Promega (in-house HiBiT-GPCR construct library, NanoBRET)
T2 sequence (O43614 1-444): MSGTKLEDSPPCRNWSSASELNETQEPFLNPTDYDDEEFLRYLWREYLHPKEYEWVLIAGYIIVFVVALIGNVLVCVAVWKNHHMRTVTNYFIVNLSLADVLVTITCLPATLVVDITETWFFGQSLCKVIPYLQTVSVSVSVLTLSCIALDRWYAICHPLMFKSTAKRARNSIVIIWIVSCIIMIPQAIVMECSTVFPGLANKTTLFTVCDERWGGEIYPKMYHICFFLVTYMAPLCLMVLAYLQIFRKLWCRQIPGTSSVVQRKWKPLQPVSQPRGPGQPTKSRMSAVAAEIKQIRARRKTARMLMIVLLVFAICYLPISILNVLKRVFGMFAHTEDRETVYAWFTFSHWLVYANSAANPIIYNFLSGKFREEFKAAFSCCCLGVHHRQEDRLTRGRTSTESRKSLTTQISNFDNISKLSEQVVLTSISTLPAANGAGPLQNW
Kind of assay: NanoBRET screen HiBiT-HCRTR2 in HEK293. On the procedure:
as §1, §2
On the technique in general: BRET reads energy transfer from a luciferase to a nearby fluorophore.

Assay [3] has as its target T3, SSTR3 (Homo sapiens, UniProt P32745).
T3 construct: purchased Promega (in-house HiBiT-GPCR construct library, NanoBRET)
Kind of assay: NanoBRET screen HiBiT-SSTR3 in HEK293. The protocol:
as §1, §2

Assay [4] has as its target T4, CXCR4 (Homo sapiens, UniProt P61073).
T4 construct: purchased Promega (in-house HiBiT-GPCR construct library, NanoBRET)
Kind of assay: NanoBRET screen HiBiT-CXCR4 in HEK293. The protocol: as §1, §2

Where [5] appears, read: tracer at 0.1μM, listed as amitriptyline-b-2-NB590.
[6] abbreviates: tracer at 1μM, listed as amitriptyline-b-2-NB590.

T1 sequence (Q99705 whole entry): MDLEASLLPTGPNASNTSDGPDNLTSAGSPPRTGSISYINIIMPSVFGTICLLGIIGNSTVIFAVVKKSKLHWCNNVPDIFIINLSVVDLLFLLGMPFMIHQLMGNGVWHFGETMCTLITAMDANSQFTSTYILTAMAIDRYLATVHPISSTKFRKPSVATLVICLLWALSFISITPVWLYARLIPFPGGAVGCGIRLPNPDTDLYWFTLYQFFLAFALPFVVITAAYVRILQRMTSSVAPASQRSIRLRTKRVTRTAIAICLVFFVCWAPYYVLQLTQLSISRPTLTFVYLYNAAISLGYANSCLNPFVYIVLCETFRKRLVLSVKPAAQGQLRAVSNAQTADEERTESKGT
T3 sequence (P32745 whole entry): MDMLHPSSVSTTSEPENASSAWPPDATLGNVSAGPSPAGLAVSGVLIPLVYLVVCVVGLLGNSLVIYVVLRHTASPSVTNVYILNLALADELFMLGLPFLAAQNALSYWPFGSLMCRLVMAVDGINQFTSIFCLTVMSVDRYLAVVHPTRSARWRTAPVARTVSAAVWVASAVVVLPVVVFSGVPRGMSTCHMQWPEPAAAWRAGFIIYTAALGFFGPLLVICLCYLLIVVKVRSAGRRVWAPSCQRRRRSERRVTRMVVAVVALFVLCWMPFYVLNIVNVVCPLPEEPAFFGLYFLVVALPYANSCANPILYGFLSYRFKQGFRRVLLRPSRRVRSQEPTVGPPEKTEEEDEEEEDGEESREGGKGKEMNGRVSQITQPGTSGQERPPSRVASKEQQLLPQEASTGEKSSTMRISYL
T4 sequence (P61073 whole entry): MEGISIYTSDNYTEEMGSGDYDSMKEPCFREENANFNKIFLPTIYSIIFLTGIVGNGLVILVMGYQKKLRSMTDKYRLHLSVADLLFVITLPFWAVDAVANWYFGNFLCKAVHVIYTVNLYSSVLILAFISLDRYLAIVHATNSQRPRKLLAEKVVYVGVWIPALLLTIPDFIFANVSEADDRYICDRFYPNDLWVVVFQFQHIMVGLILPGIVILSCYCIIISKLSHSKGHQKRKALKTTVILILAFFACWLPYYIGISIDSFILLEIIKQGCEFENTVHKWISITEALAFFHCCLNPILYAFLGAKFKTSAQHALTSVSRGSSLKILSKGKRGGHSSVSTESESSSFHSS

With `CN(C)CCC=C1c2ccccc2CCc2ccc(C(=O)NCCNC(=O)CCOCCOCCOCCOCCNC(=O)CCc3ccc4n3[B-](F)(F)[N+]3=C(c5ccc[nH]5)C=CC3=C4)cc21` [Amitriptyline-b-2-NB590], the “NanoBRET Fold Response” value is 0.79 in assay [1] (setting [5]); 1.01 in assay [1] (setting [6]); 1.00 in assay [2] (setting [5]); 0.98 in assay [2] (setting [6]); 0.95 in assay [3] (tracer at 0.1μM); 0.99 in assay [3] (tracer at 1μM). In addition, the “NanoBRET Fold Response” value in assay [4] (setting [5]) is listed as 1.12; in assay [4] (tracer at 1μM), 0.70.
Consider `O=C(CCOCCOCCOCCOCCNC(=O)CCc1ccc2n1[B-](F)(F)[N+]1=C(c3ccc[nH]3)C=CC1=C2)NCCCN1CCN(C2=Nc3cc(Cl)ccc3Nc3ccccc32)CC1` [Clozapine-a-2-NB590], for which the “NanoBRET Fold Response” value is given as 0.87 in assay [1] (MCHR1, 0.1μM tracer); 1.26 in assay [1] (MCHR1, 1μM tracer); 1.05 in assay [2] (HCRTR2, 0.1μM tracer); 1.16 in assay [2] (HCRTR2, 1μM tracer); 0.91 in assay [3] (SSTR3, 0.1μM tracer); 1.05 in assay [3] (SSTR3, 1μM tracer). In addition, the “NanoBRET Fold Response” value is given as 1.04 in assay [4] (CXCR4, 0.1μM tracer) and 0.85 in assay [4] (CXCR4, 1μM tracer).
As to `CN1CCN(C2=Nc3cc(Cl)ccc3Nc3ccc(CNC(=O)CCOCCOCCOCCOCCNC(=O)CCc4ccc5n4[B-](F)(F)[N+]4=C(c6ccc[nH]6)C=CC4=C5)cc32)CC1` [Clozapine-b-2-NB590], the “NanoBRET Fold Response” value in assay [1] (MCHR1, 0.1μM tracer) came to 0.96; in assay [1] (MCHR1, 1μM tracer), 1.00; in assay [2] (HCRTR2, 0.1μM tracer), 0.99; in assay [2] (HCRTR2, 1μM tracer) it was 0.98; in assay [3] (SSTR3, 0.1μM tracer) it was 0.99; in assay [3] (SSTR3, 1μM tracer), 1.02. The “NanoBRET Fold Response” value amounted to 1.03 in assay [4] (CXCR4, 0.1μM tracer) and 1.07 in assay [4] (CXCR4, 1μM tracer).
With `Cc1nc2n(c(=O)c1CCN1CCC(c3noc4cc(F)ccc34)CC1)CCCC2OC(=O)NCCOCCOCCOCCOCCNC(=O)CCc1ccc2n1[B-](F)(F)[N+]1=C(c3ccc[nH]3)C=CC1=C2` (centres unmarked) [Risperidone-2-NB590], the “NanoBRET Fold Response” value in assay [1] (MCHR1, tracer 0.1μM) stood at 0.94; in assay [1] (MCHR1, tracer 1μM), 0.97; in assay [2] (HCRTR2, tracer 0.1μM) it was 0.98; in assay [2] (HCRTR2, tracer 1μM) it was 0.96; in assay [3] (SSTR3, tracer 0.1μM), 0.92; in assay [3] (SSTR3, tracer 1μM), 0.99. Further, the “NanoBRET Fold Response” value in assay [4] (CXCR4, tracer 0.1μM) is reported as 1.05; in assay [4] (CXCR4, tracer 1μM), 1.12.
